ChEMBL document CHEMBL5032529, “Synthesis and evaluation of tetrahydroisoquinoline derivatives against Trypanosoma brucei rhodesiense” (Eur J Med Chem, 2021)

Legend:
[1] = test system: Trypanosoma brucei rhodesiense; test: Antitrypanosomal activity against Trypanosoma brucei rhodesiense STIB900 assessed as parasite growth inhibition measured after 72 hrs by alamar blue dye based spectrofluorimetric analysis; assay type: functional, organism-based; conditions: STIB900, 72 h
Vero = test: Cytotoxicity against African green monkey Vero cells assessed as reduction in cell viability measured after 72 hrs by SRB assay; assay type: cell-based; conditions: Chlorocebus sabaeus
[2] = Selectivity index, ratio of IC50 for cytotoxicity against African green monkey Vero cells to IC50 for antitrypanosomal activity against Trypanosoma brucei rhodesiense STI B900; assay type: toxicity, cell-based; conditions: read-out: Ratio IC50
[3] = test system: Trypanosoma brucei rhodesiense; test: Antitrypanosomal activity against Trypanosoma brucei rhodesiense STIB900 assessed as parasite growth inhibition; assay type: functional, organism-based
[4] = Inhibition of Trypanosoma Trypanothione reductase in presence of NADPH by DTNB based colorimetric assay
Trypanosoma brucei = test: Antitrypanosomal activity against bloodstream form of Trypanosoma brucei assessed as parasite growth inhibition incubated for 3 days by resazurin staining based assay; assay type: functional, organism-based; conditions: 72 h

Row | SMILES | IC50 [1] | IC50 (Vero) | selectivity ratio [2] | IC50 [3] | IC50 [4] | EC50 (Trypanosoma brucei)
1 | CC1(C)N=C(N)N=C(N)N1OCCCOc1cc(Cl)c(Cl)cc1Cl | 0.25 µM | > 10 µM | > 40 |  |  | 
2 | C=C1C[C@H]2OC(=O)C(=C)[C@@H]2[C@H](OC(=O)/C(C)=C/C)C[C@@]2(C)OC1=CC2=O |  |  |  | 0.015 µM |  | 
3 | CN1Cc2ccc(OCc3ccccc3)cc2[C@@H](OCc2ccccc2)C1 | 2.8 µM | 23.5 µM | 8.4 |  |  | 
4 | OC1CCCc2ccc(OCc3ccccc3)cc21 (configuration not stated) | 65.9 µM | 39 µM | 0.6 |  |  | 
5 | CN1CCc2cc(OCc3ccc(-c4ccccc4)cc3)ccc2C1 | 2.3 µM | 16.5 µM | 7.2 |  |  | 
6 | CN1CCc2cc(OCc3ccccc3)ccc2C1 | 4.4 µM | > 100 µM | > 22.7 |  |  | 
7 | CN1CCc2cc(Oc3ccccc3)ccc2C1 | 19.8 µM | > 100 µM | > 5.7 |  |  | 
8 | CN1Cc2c(OCc3ccc(-c4ccccc4)cc3)cccc2[C@@H](O)C1 | 3.1 µM | > 50 µM | > 16 |  |  | 
9 | OC1CN(Cc2ccccc2)Cc2ccc(OCc3ccc(-c4ccccc4)cc3)cc21 (configuration not stated) | 2.7 µM | 14.8 µM | 5.5 |  |  | 
10 | CN1Cc2ccc(O)cc2[C@@H](OCc2ccc(-c3ccccc3)cc2)C1 | 6.4 µM | > 50 µM | > 7.8 |  |  | 
11 | OC1CNCc2c(OCc3ccc(-c4ccccc4)cc3)cccc21 (configuration not stated) | 2.7 µM | 21.6 µM | 8 |  |  | 
12 | OC1CNCc2c(OCc3cccc(Br)c3)cccc21 (configuration not stated) | 2.6 µM | 73.5 µM | 28.3 |  |  | 
13 | CN1Cc2ccc(O)cc2[C@@H](OCCC2CCCCC2)C1 | 19.1 µM | > 50 µM | > 2.6 |  |  | 
14 | CN1Cc2ccc(OCc3ccc(-c4ccccc4)cc3)cc2[C@H](OC(=O)c2ccccc2)C1 | 16.3 µM | 12.9 µM | 0.8 |  |  | 
15 | CN1Cc2ccc(OCc3ccc(Br)cc3)cc2[C@@H](O)C1 | 2.5 µM | 37 µM | 14.8 |  |  | 
16 | COc1cccc(-c2cccc(COc3ccc4c(c3)[C@@H](O)CN(C)C4)c2)c1 | 2.9 µM | 24.3 µM | 8.4 |  |  | 
17 | CN1CCc2cc(-c3ccc(-c4ccccc4)cc3)ccc2C1 | 0.27 µM | 15.6 µM | 57.8 |  |  | 
18 | Clc1ccc2c(c1)N(CCCN1CCN(CCCc3ccccc3)CC1)c1ccccc1S2 |  |  |  |  | 0.75 µM | 0.775 µM
19 | OC1CN(Cc2ccccc2)Cc2ccc(OCc3ccccc3)cc21 (configuration not stated) | 8.4 µM | 31.8 µM | 3.8 |  |  | 
20 | CN1CCc2cc(OCCC3CCCCC3)ccc2C1 | 2.9 µM | 25 µM | 8.6 |  |  | 
21 | OC1CNCc2ccc(OCc3cccc(Br)c3)cc21 (configuration not stated) | 3.33 µM | 54.3 µM | 16.3 |  |  | 
22 | CN1Cc2ccc(OCc3ccc(-c4ccc5ccccc5c4)cc3)cc2[C@@H](O)C1 | 0.24 µM | 0.31 µM | 1.3 |  |  | 
23 | CN1Cc2ccc(OCc3cccc(Br)c3)cc2[C@@H](O)C1 | 2.2 µM | 60.3 µM | 27.4 |  |  | 
24 | OC1CNCc2c(OCc3ccc(Br)cc3)cccc21 (configuration not stated) | 2.54 µM | > 50 µM | > 19.7 |  |  | 
25 | Cc1ccccc1COc1cccc2c1CNCC2O (configuration not stated) | 16.5 µM | > 100 µM | > 6.1 |  |  | 

Row | SMILES | IC50 [1] | IC50 (Vero) | selectivity ratio [2] | IC50 [3] | IC50 [4] | EC50 (Trypanosoma brucei)
26 | OC1CNCc2c(OCc3ccccc3)cccc21 (configuration not stated) | 26.2 µM | > 50 µM | > 1.9 |  |  | 
27 | CN1Cc2c(OCc3ccccc3)cccc2[C@@H](O)C1 | 69.8 µM | > 100 µM | > 1.4 |  |  | 
28 | OC1CNCc2ccc(OCc3ccccc3)cc21 (configuration not stated) | 17.4 µM | > 50 µM | > 2.9 |  |  | 
29 | CN1Cc2ccc(OCc3ccc(-c4ccccc4)cc3)cc2[C@@H](OC(=O)c2ccccc2)C1 | 16.4 µM | 10.5 µM | 0.6 |  |  | 
30 | OC1CNCc2ccc(OCCC3CCCCC3)cc21 (configuration not stated) | 2.5 µM | > 50 µM | > 20 |  |  | 
31 | CN1Cc2ccc(OCc3cccc(-c4ccc(Cl)cc4)c3)cc2[C@@H](O)C1 | 2.9 µM | 27.3 µM | 9.4 |  |  | 
32 | CN1Cc2ccc(OCc3ccc(-c4cccc(Cl)c4)cc3)cc2[C@@H](O)C1 | 2.8 µM | 25.5 µM | 9.1 |  |  | 
33 | CN1CCc2cc(OCCCN3CCOCC3)ccc2C1 | 25.9 µM | > 50 µM | > 1.9 |  |  | 
34 | CN1Cc2ccc(OC(c3ccccc3)(c3ccccc3)c3ccccc3)cc2[C@@H](O)C1 | 20.8 µM | 87.9 µM | 4.2 |  |  | 
35 | CN1CCc2cc(-c3ccc4ccccc4c3)ccc2C1 | 2.7 µM | 24.1 µM | 8.9 |  |  | 
36 | COc1cccc(-c2ccc(COc3ccc4c(c3)[C@@H](O)CN(C)C4)cc2)c1 | 2.8 µM | 10.8 µM | 3.9 |  |  | 
37 | OC1CNCc2ccc(OCc3ccc(-c4ccccc4)cc3)cc21 (configuration not stated) | 0.25 µM | 20.8 µM | 83.2 |  |  | 
38 | Oc1ccc2c(c1)C(O)CN(Cc1ccccc1)C2 (configuration not stated) | 70.5 µM | > 100 µM | > 1.4 |  |  | 
39 | Cc1ccccc1COc1ccc2c(c1)C(O)CNC2 (configuration not stated) | 3.26 µM | > 25 µM | > 7.7 |  |  | 
40 | CN1Cc2ccc(O[Si](c3ccccc3)(c3ccccc3)C(C)(C)C)cc2[C@@H](O)C1 | 2.8 µM | 19.1 µM | 6.8 |  |  | 
41 | Oc1ccc2c(c1)C(O)CN(Cc1ccc(-c3ccccc3)cc1)C2 (configuration not stated) | 5.4 µM | > 50 µM | > 9.3 |  |  | 
42 | CN1Cc2ccc(OCc3ccc(-c4ccccc4)cc3)cc2[C@@H](OCc2ccc(-c3ccccc3)cc2)C1 | 2.8 µM | > 10 µM | > 3.6 |  |  | 
43 | CN1CCc2cc(-c3ccccc3)ccc2C1 | 3 µM | > 50 µM | > 16.7 |  |  | 
44 | CN1CCc2cc(Oc3ccc(-c4ccccc4)cc3)ccc2C1 | 2.7 µM | 22.3 µM | 8.3 |  |  | 
45 | CN1Cc2ccc(OCc3ccc(-c4ccc(Cl)cc4)cc3)cc2[C@@H](O)C1 | 0.28 µM | 21.7 µM | 77.5 |  |  | 
46 | CN1Cc2c(OCCC3CCCCC3)cccc2[C@@H](O)C1 | 13 µM | 62.7 µM | 4.8 |  |  | 
47 | CN1Cc2ccc(OCCC3CCCCC3)cc2[C@@H](OCCC2CCCCC2)C1 | 2.3 µM | 23.6 µM | 10.3 |  |  | 
48 | CN1Cc2ccc(OCc3ccc(-c4ccc(-c5ccccc5)cc4)cc3)cc2[C@@H](O)C1 | 0.28 µM | 0.28 µM | 1 |  |  | 
49 | CN1Cc2ccc(OCc3ccc(-c4ccc(F)cc4)cc3)cc2[C@@H](O)C1 | 1.4 µM | 33.8 µM | 24.1 |  |  | 
50 | OC1CNCc2c(OCCC3CCCCC3)cccc21 (configuration not stated) | 2.01 µM | 25.3 µM | 12.6 |  |  | 
